In US20070178152A1, “Carboxyalkylcellulose esters for administration of poorly soluble pharmaceutically active agents” (priority 2005, published 2007):
Where “and” joins values, the source holds several entries; their conditions need not be identical. Equal values may be shown once.

How the values were obtained:
[1] = Dissolution of glyburide and glyburide solid dispersions in SIFsp, pH 6.8; format: physicochemical; set-up: drug released per capsule, Table 18C (quantity not headed): unit not given here; conditions: for % Drug Released / Total Drug Released / Normalized Drug Released / drug released per capsule, Table 18C (quantity not headed): gelatin capsule
Description: (§1) All dissolution studies were performed on a Varian VK7025 Dissolution Apparatus equipped with a Varian VK8000 Fraction Collector
(§2) HPLC Methods for Evaluating Dissolution Aliquots:
(§3) Determination of Weight % Phenytoin, Carbamazepine, Glyburide, or Griseofulvin.
(§4) Mobile Phase: 55% acetonitrile/45% ammonium acetate buffer (2.6 g NH4OAc/L H2O with pH adjusted to pH˜5.25 with glacial acetic acid)
(§5) Column: Agilent Eclipse XDB-C8, 4.6 mm×150 mm×5 μm
(§6) Detection: UV 254 nm (UV 214 nm can also be used for phenytoin or carbamazepine, UV 291 nm can also be used for griseofulvin); typically five signals were selected from UV 214 nm, 222 nm, 254 nm, 287 nm, 291 nm, and/or 325 nm were collected for each sample.
Preparation of Glyburide Standard Curves
Glyburide reference standard from USP was dried as directed (106° C. for six hours), then approximately 20-25 mg of glyburide are added to a 25-mL volumetric flask and dissolved in DMSO or 55% acetonitrile/45% ammonium acetate, pH 5.25. The volume was diluted to 25 mL. A set of standard dilutions were prepared either using 10-mL volumetric flasks or Rainin automatic pipetmen.
(§7) Simulated Intestinal Fluid, without pancreatin, pH 6.8 (SIFsp, pH 6.8)—Added monobasic potassium phosphate (KH2PO4, 34 g) to a 4000-mL beaker. Added deionized/polished water (2000 mL) and mixed using a magnetic stir bar until the KH2PO4 is completely dissolved. Added 0.2 N sodium hydroxide (NaOH, 590 mL) and stirred. The pH was adjusted to pH 6.8±0.1 using 0.2 N NaOH. The sample was diluted with deionized/polished water to a final volume of 5000 mL.
(§8) The SIFsp media was heated to ˜45° C. in four 2000-mL Kimax bottles in an oven. The sample was degassed according to USP protocol by filtering through a 0.45 μm membrane filter (Pall, Supor-450, 0.45 μm, 90 mm, part # 60200, Lot # 43214) and stirring under vacuum for 5 minutes.
(§9) Dissolution Conditions #1.
(§10) Dissolution Conditions #2.
These Examples describe the dissolution of glyburide and glyburide solid Dispersions by evaluating the samples described in Examples 109-117. SlFsp, pH 6.8 media preperation was described in the Materials and Methods section.
Samples were transferred into gelatin capsules (Capsugel, size OCS, Lot #624282) using a manual single capsule filler. The weight of each capsule and the amount of sample added are found in Table 18 (Capsule Description).
These Examples describe the dissolution of glyburide and glyburide solid dispersions by evaluating the samples described in Examples 119-124. SIFsp, pH 6.8 media preperation was described in the Materials and Methods section.
Samples were transferred into gelatin capsules (Capsugel, size OCS, Lot # 624282) using a manual single capsule filler. The weight of each capsule and the amount of sample added are found in Tables 19 and 20 (Capsule Description).

[2] = Dissolution of griseofulvin and griseofulvin solid dispersions (with or without surfactant) in SIFsp, pH 6.8; format: physicochemical; conditions: for % Drug Released / Total Drug Released: SIFsp pH 6.8, gelatin capsule, single vessel; for Average % Released: SIFsp, pH 6.8, average of runs
Description: as §1, §2, §3, §4, §5, §6, §7, §8, §9, §10
These Examples describe the dissolution of griseofulvin and griseofulvin solid dispersions by evaluating the samples described in Examples 125-134. SlFsp, pH 6.8 media preparation was described in the Materials and Methods section.
Samples were transferred into gelatin capsules (Capsugel, size 0CS, Lot # 624282) using a manual single capsule filler. The weight of each capsule and the amount of sample added are found in Table 21 and 22 (Capsule Description).
These Examples describe the impact of surfactant additives on the dissolution profiles of griseofulvin/CMCAB solid dispersions. Preparations of the griseofulvin/CMCAB, griseofulvin/CMCAB/Tween 80, and griseofulvin/CMCAB/SDS solid dispersions evaluated in this example are described in Examples 135-138. SIFsp, pH 6.8 media preparation was described in the Materials and Methods section.
Samples were transferred into gelatin capsules (Capsugel, size 00CS, Lot # 637785) using a manual single capsule filler. The weight of each capsule and the amount of sample added are found in Table 23 (Capsule Description).

Structure (SMILES): COc1ccc(Cl)cc1C(=O)NCCc1ccc(S(=O)(=O)NC(=O)NC2CCCCC2)cc1 [Glyburide]
- Average % Released ([1]; 10 min, average of capsules): 0.1549%
- Average % Released ([1]; 10 min, average of vessels): 0.0373%
- % Drug Released ([1]; 10 min, single vessel): 0.0362% and 0.0355% and 0.0403%
- Total Drug Released ([1]; 15 min, single vessel): 0.0321 mg
- Average % Released ([1]; 20 min, average of capsules): 1.0081%
- Average % Released ([1]; 20 min, average of vessels): 0.2490%
- Normalized Drug Released ([1]; 20 min): 0.7201 mg and 0.7299 mg
- drug released per capsule, Table 18C (quantity not headed) ([1]; 20 min): 1.0149 and 1.0013
- % Drug Released ([1]; 20 min, single vessel): 0.0355% and 0.2912% and 0.4202%
- Average % Released ([1]; 30 min, average of capsules): 1.2315%
- Average % Released ([1]; 30 min, average of vessels): 0.4372%
- Normalized Drug Released ([1]; 30 min): 0.8728 mg and 0.8986 mg
- drug released per capsule, Table 18C (quantity not headed) ([1]; 30 min): 1.2495 and 1.2136
- % Drug Released ([1]; 30 min, single vessel): 0.4237% and 0.4293% and 0.4587%
- Total Drug Released ([1]; 45 min, single vessel): 0.3834 mg and 0.3424 mg and 0.4071 mg
- Average % Released ([1]; 60 min, average of capsules): 1.7763%
- Average % Released ([1]; 60 min, average of vessels): 0.5522%
- Normalized Drug Released ([1]; 60 min): 1.2890 mg and 1.2660 mg
- drug released per capsule, Table 18C (quantity not headed) ([1]; 60 min): 1.7923 and 1.7603
- % Drug Released ([1]; 60 min, single vessel): 0.4365% and 0.5720% and 0.6480%
- Total Drug Released ([1]; 60 min, single vessel): 0.3950 mg and 0.4562 mg and 0.5752 mg
- Total Drug Released ([1]; 90 min, single vessel): 0.6124 mg and 0.6166 mg and 0.7677 mg
- Average % Released ([1]; 120 min, average of capsules): 2.1001%
- Average % Released ([1]; 120 min, average of vessels): 0.7716%
- Normalized Drug Released ([1]; 120 min): 1.5740 mg and 1.4468 mg
- drug released per capsule, Table 18C (quantity not headed) ([1]; 120 min): 2.1886 and 2.0117
- % Drug Released ([1]; 120 min, single vessel): 0.6767% and 0.7732% and 0.8649%
- Total Drug Released ([1]; 120 min, single vessel): 0.7134 mg and 0.7222 mg and 0.8356 mg
- Total Drug Released ([1]; 150 min, single vessel): 0.8270 mg and 0.8369 mg and 0.9711 mg
- Average % Released ([1]; 180 min, average of capsules): 2.2533%
- Average % Released ([1]; 180 min, average of vessels): 0.8784%
- Normalized Drug Released ([1]; 180 min): 1.6724 mg and 1.5688 mg
- drug released per capsule, Table 18C (quantity not headed) ([1]; 180 min): 2.3253 and 2.1813
- % Drug Released ([1]; 180 min, single vessel): 0.7882% and 0.9056% and 0.9414%
- Total Drug Released ([1]; 180 min, single vessel): 0.8919 mg and 0.9402 mg and 0.9572 mg
- Total Drug Released ([1]; 210 min, single vessel): 0.9428 mg and 0.9956 mg and 1.4143 mg
- Average % Released ([1]; 240 min, average of capsules): 2.3376%
- Average % Released ([1]; 240 min, average of vessels): 1.0191%
- Normalized Drug Released ([1]; 240 min): 1.7153 mg and 1.6471 mg
- Total Drug Released ([1]; 240 min): 0.1934 mg and 0.1252 mg
- drug released per capsule, Table 18C (quantity not headed) ([1]; 240 min): 2.3850 and 2.2902
- % Drug Released ([1]; 240 min, single vessel): 0.9138% and 1.0495% and 1.0941%
- Total Drug Released ([1]; 240 min, single vessel): 1.0358 mg and 1.0726 mg and 1.2243 mg
- Average % Released ([1]; 300 min, average of capsules): 2.4335%
- Average % Released ([1]; 300 min, average of vessels): 1.0810%
- Normalized Drug Released ([1]; 300 min): 1.7802 mg and 1.7202 mg
- Total Drug Released ([1]; 300 min): 0.2583 mg and 0.1982 mg
- drug released per capsule, Table 18C (quantity not headed) ([1]; 300 min): 2.4752 and 2.3918
- % Drug Released ([1]; 300 min, single vessel): 0.9855% and 1.1790% and 1.0784%
- Average % Released ([1]; 360 min, average of capsules): 2.5067%
- Average % Released ([1]; 360 min, average of vessels): 1.2945%
- Normalized Drug Released ([1]; 360 min): 1.8465 mg and 1.7592 mg
- Total Drug Released ([1]; 360 min): 0.3246 mg and 0.2373 mg
- drug released per capsule, Table 18C (quantity not headed) ([1]; 360 min): 2.5674 and 2.4461
- % Drug Released ([1]; 360 min, single vessel): 1.0417% and 1.2484% and 1.5934%
- Average % Released ([1]; 450 min, average of capsules): 2.5617%
- Average % Released ([1]; 450 min, average of vessels): 1.2896%
- Normalized Drug Released ([1]; 450 min): 1.8424 mg
- Total Drug Released ([1]; 450 min): 0.3205 mg
- drug released per capsule, Table 18C (quantity not headed) ([1]; 450 min): 2.5617
- % Drug Released ([1]; 450 min, single vessel): 1.1444% and 1.3449% and 1.3793%

Structure (SMILES): COC1=CC(=O)C[C@@H](C)[C@]12Oc1c(Cl)c(OC)cc(OC)c1C2=O [griseofulvin, Griseofulvin]
- % Drug Released ([2]; 15 min): 39.8059% and 45.3135% and 36.6133% and 35.8167%
- Total Drug Released ([2]; 15 min): 13.1651 mg and 12.7375 mg and 12.9809 mg and 12.9579 mg
- % Drug Released ([2]; 30 min): 37.0470% and 36.5664% and 39.6132% and 46.9736%
- Total Drug Released ([2]; 30 min): 13.1347 mg and 13.2291 mg and 13.1014 mg and 13.0986 mg
- % Drug Released ([2]; 45 min): 36.6587% and 36.6412% and 39.5262% and 47.1475%
- Total Drug Released ([2]; 45 min): 12.9970 mg and 13.2561 mg and 13.0726 mg and 13.1471 mg
- % Drug Released ([2]; 60 min): 37.2839% and 36.7251% and 40.3033% and 46.5134%
- Total Drug Released ([2]; 60 min): 13.2187 mg and 13.2865 mg and 13.3296 mg and 12.9703 mg
- % Drug Released ([2]; 90 min): 36.3266% and 35.9752% and 39.8005% and 51.1520%
- Total Drug Released ([2]; 90 min): 12.8793 mg and 13.0152 mg and 13.1633 mg and 14.2638 mg
- % Drug Released ([2]; 120 min): 38.9498% and 36.7450% and 40.2775% and 47.3403%
- Total Drug Released ([2]; 120 min): 13.8093 mg and 13.2937 mg and 13.3211 mg and 13.2009 mg
- % Drug Released ([2]; 150 min): 36.6774% and 35.8335% and 39.6316% and 47.7972%
- Total Drug Released ([2]; 150 min): 13.0036 mg and 12.9639 mg and 13.1075 mg and 13.3283 mg
- % Drug Released ([2]; 180 min): 36.6068% and 35.6474% and 39.0996% and 46.7861%
- Total Drug Released ([2]; 180 min): 12.9786 mg and 12.8966 mg and 12.9315 mg and 13.0464 mg
- % Drug Released ([2]; 210 min): 37.1385% and 35.7882% and 39.5796% and 46.7393%
- Total Drug Released ([2]; 210 min): 13.1671 mg and 12.9476 mg and 13.0903 mg and 13.0333 mg
- % Drug Released ([2]; 240 min): 36.7973% and 36.6212% and 39.5780% and 46.2187%
- Total Drug Released ([2]; 240 min): 13.0461 mg and 13.2489 mg and 13.0897 mg and 12.8881 mg
- griseofulvin release profile ([2]; SIFsp pH 6.8, FIGS. 7-14, in words): rapid release
- Average % Released ([2]; 15 min): 39.3874%
- Average % Released ([2]; 30 min): 40.0500%
- Average % Released ([2]; 45 min): 39.9934%
- Average % Released ([2]; 60 min): 40.2064%
- Average % Released ([2]; 90 min): 40.8136%
- Average % Released ([2]; 120 min): 40.8282%
- Average % Released ([2]; 150 min): 39.9849%
- Average % Released ([2]; 180 min): 39.5350%
- Average % Released ([2]; 210 min): 39.8114%
- Average % Released ([2]; 240 min): 39.8038%
